Source: US20260015333A1, “COMPOUNDS AND METHODS FOR INHIBITION OF THE EVOLUTION OF […]” (priority 2022, published 2026)

Biological target: Mfd (Salmonella typhimurium, UniProt Q8ZQ01)
Assay: biochemical
Design: species or system S. typhimurium
Description: FIGS. 2A-2D depict how ARM-1 affects Mfd's biochemical activity. FIG. 2A depicts how the kd of ARM-1 was determined using microscale thermophoresis. Data shown represent a minimum of three independent experiments. FIG. 2B depicts a NADH-coupled ATPase assay. ATP hydrolysis by Mfd was coupled to NADH oxidation. Phosphoenolpyruvate is converted to pyruvate by pyruvate kinase, transferring a phosphate group onto ADP, which is only present in the reaction following ATP hydrolysis by Mfd. Pyruvate is then converted to lactate by lactate dehydrogenase, oxidizing NADH to NAD^+. Absorbance at 340 nm by NADH is used to monitor the reaction. Data shown represent a minimum of 3 biological replicates. FIG. 2C depicts a transcription roadblock assay. A P32-labled 176 bp PCR fragment was incubated with E. coli RNAP along with saturating concentrations of ATP, GTP, and UTP. 100 nM S. typhimurium ST19 Mfd preincubated with indicated concentrations of ARM-1 was added and the reaction allowed to proceed for 6 minutes. DNA products were then resolved on a polyacrylamide gel and analyzed by phosphorimaging. […] Quantification of these gels is shown below each lane. […]
ATPase assays were performed as described in Kiiansita et al., 2003. […] To start reaction, varying quantities of ATP were added and absorbance at 340 nm was measured every 60 seconds for 1 hour in an Epoch2 microplate spectrophotometer (BioTek). […]

Sequence of Mfd (Q8ZQ01 entry or part of it): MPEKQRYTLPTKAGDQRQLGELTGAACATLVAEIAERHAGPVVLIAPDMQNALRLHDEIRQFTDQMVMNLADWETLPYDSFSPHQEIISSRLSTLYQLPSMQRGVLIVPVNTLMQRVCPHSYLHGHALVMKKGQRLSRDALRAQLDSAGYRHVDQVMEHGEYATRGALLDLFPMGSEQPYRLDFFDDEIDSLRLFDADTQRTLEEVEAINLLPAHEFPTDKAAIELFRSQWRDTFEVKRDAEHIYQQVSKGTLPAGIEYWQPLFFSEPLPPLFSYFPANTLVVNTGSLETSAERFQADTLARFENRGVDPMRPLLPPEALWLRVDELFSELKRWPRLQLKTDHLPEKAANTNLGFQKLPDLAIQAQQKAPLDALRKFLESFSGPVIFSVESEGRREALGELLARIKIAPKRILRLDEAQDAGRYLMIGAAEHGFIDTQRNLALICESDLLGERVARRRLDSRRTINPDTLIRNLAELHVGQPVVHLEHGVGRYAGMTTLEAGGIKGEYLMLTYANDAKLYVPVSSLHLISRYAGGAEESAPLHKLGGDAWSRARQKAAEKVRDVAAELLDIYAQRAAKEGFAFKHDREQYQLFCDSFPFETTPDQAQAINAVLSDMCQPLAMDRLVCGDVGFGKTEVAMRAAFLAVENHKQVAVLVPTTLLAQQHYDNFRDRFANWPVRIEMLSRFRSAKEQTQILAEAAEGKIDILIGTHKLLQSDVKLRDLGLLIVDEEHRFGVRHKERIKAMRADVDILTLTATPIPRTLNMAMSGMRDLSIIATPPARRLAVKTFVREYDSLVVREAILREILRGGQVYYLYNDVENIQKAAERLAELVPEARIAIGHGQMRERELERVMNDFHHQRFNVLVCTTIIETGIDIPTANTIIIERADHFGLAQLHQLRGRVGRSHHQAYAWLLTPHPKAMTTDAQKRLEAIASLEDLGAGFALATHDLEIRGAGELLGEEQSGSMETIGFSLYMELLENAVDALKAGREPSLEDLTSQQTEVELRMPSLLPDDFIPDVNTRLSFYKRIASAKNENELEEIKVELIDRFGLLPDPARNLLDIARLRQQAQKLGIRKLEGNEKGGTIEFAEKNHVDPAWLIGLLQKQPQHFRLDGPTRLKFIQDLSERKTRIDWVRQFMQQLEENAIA

For Cc1cc(Br)ccc1-c1ccc(CNCCCN(C)C)o1 [ARM-1, N^1-((5-(4-bromo-2-methylphenyl)furan-2-yl)methyl)-N^3,N^3-dimethylpropane-1,3-diamine], which “ATP hydrolysis by Mfd” value (6.25 μM to 50 μM ARM-1, ratios of 125 to 1000 ARM-1 per Mfd) is on record?
The value was “dose dependent increase”.

What about the fold induction at 50 µM (50 μM ARM-1, read-out: ATPase activity enhancement) of the same compound?
Its fold induction at 50 µM is roughly 3.
